# Results from patent publication US12158464B2, “Methods for modeling disease tissue using three-dimensional tissue systems” (priority 2013, dated 2024).
# Legend:
# [1] = system: human cardiac tissue strands (hESC, Hes2 derived cardiomyocytes); assay: Biorod drug testing: tissue beating pattern and contractile force by polymer wire deflection; assay type: cell-based; details: for response of human cardiac tissues to well-known drugs: summary statement
# Experimental: Cardiomyocytes were derived from human embryonic stem cell lines (hESC, Hes2). Embryoid bodies (EBs) were differentiated to the cardiovascular lineage and disassociated as previously described in Device 1 Methods. Before cell seeding, micro-well surface was rinsed with 5% (w/v) Pluronic Acid (Sigma P2443) and then air dried in the bio-safety cabinet. hESC derived cardiomyocytes were suspended at 200 million/ml (unless specified otherwise) in Collagen Type I based gel (3.0 mg/ml of rat tail collagen type I (BD Biosciences) neutralized by 1N NaOH and 10×M199 media as described by the manufacturer) with the supplements of […], 1% (v/v) HEPES, 10% (v/v) Matrigel (BD Biosciences), and […]. Suspended cardiomyocytes were then seeded into the cell culture channel (2.5 μl per well). After 30 min incubation at 37° C. to induce the gelation, appropriate media were added. After seeding, cells were kept in culture for 7 days to allow collagen matrix remodeling and assembly around the wires. Cardiac tissue strands were kept in culture for up to 21 days with media change every 2-3 days. Preferably, the tissue strands should be kept in culture for at least 2 weeks to allow for maturation; however there is no limitation on the maximum culture duration. Cardiac tissue strands were seeded to observe the stability and reproducibility of tissue in long term culture. After seeding, brightfield images (see FIG. 39A for an example) of the tissue strands were taken every day (n=3 per group) using optical microscope (Olympus CKX41) and the diameters of the tissue strands at four distinct locations were analyzed with imageJ (see FIG. 39B for an example). Tissue strand lengths were also analyzed with same method.
# Tissue contractile behavior tracing and measurement was carried out. POMac is auto-fluorescent at a wide range of wavelenths; therefore the wires were imaged with a fluorescence microscope under DAPI channel (e.g. 461 nm wavelength) to trace the bending movements of the wires. The POMac is auto-fluorescent at a wide range of wavelengths, including under FITC and Tritc channels. Images were taken at 25 frames per second (fps) (see FIG. 39C). Image sequences were analyzed with ImageJ software using tracking plugin. To calculate the forces originated from cardiac tissues, beam deflection formula with uniformly distributed load in the middle section was used here. […] The engineered cardiac tissues were paced at 2 Hz frequency. From this image sequence, contraction and relaxation time of beating can be estimated. […] Tissue stretching wires can be considered uniformly distributed Load, Wo (Load per force bearing length), which can be calculated with displacement of center point of wires in image sequence, and F can be calculated as well. […] Briefly, entire beam length was L. Section of wire with tissue wrapping around it was experiencing load. Here, the load was assumed to be evenly distributed throughout this section, and Wo was load per length. […] The distance between side of the tissue and a well wall is a, which was assumed equal for both sides. The deflection at center point was y.
# Drug testing was carried out.
# [2] = system: hESC-derived cardiomyocytes (Hes2 cell line); assay: Calcium transient measurements in single cardiomyocytes dissociated from tissue strands; assay type: cell-based, human
# Experimental: Calcium transient measurements were taken. Tissue strands were dissociated by incubation with collagenase and trypsin as described in detail above. The dissociated cardiomyocytes were plated onto growth factor free Matrigel (diluted 1:60 in RPMI media)-coated 25-mm microscope glass coverslips overnight. Cells were then incubated with 5 μM of fluo-4 acetoxymethyl ester (fluo-4 AM) in culture media for 2 hours at 37° C. Subsequently, cardiomyocytes were washed twice with dye-free medium and placed back into the incubator for 30 min. A laser scanning confocal microscope (Zeiss LSM 510) was used to measure the fluorescence intensity of fluo-4 AM. The coverslips containing the fluo-4 AM-loaded cardiomyocytes were moved onto a special chamber and tightly secured. Approximately 1.8-1.9 ml of culture medium was added into the chamber, which was placed on a temperature controlled-plate (37° C.) on the microscope. Fluo-4 was excited via an argon laser (488 nm) and emitted fluorescence was collected through a 505 nm emission filter. Changes in fluo-4 AM fluorescence intensity, which indicates transient fluctuation of cytosolic calcium concentration, were recorded in frame and line scan model. The images and fluorescence data were acquired through Zeiss software. The fluorescence data were analyzed with Origin 8.5 software. Fluorescence signals (F) were normalized to baseline fluorescence after loading fluo-4 AM. The rising phase of the signals was fitted by linear model while the decaying phase of the signals was fitted by ExpDecay with Offset model. Caffeine, Verapamil (Sigma) and Thapsigargin (Invitrogen) were directly added into the chamber that contained the cardiomyocytes during imaging at concentrations indicated in the figures.
# [3] = system: endothelialized AngioChip human cardiac tissue; details: 10 μM perfused through built-in vasculature, within 30 min
# Experimental: Cardiac drug test. On day 7 of culture, the spontaneous contractions of the cardiac tissues were recorded as bright-field videos. […] After 30 min incubation, the spontaneous contractions of the cardiac tissues were recorded again as bright-field videos. The frequency of contraction was analyzed from the recorded videos with image J. DMSO was used to dissolve the drugs. The final concentration of DMSO in the culture media was diluted to less than 0.1% (v/v).
# [4] = system: Hes2 hESC-derived cardiomyocyte tissue strands; details: Hes2 hESC-cardiomyocyte tissue strand; DI-4-ANEPPS imaging
# Experimental: For human cardiac tissue strands, day 20 EBs generated as described above were incubated in collagenase type I (1 mg/ml; Sigma) and DNAse (1 mg/ml, CalBiochem) in Hank's Balanced Salt Solution (NaCl, 136 mM; NaHCO3, 4.16 mM; Na3PO4, 0.34 mM; KCl, 5.36 mM; KH2PO4, 0.44 mM; dextrose, 5.55 mM; HEPES, 5 mM) for 2 hr at 37° C. EBs were centrifuged (800 r.p.m., 5 min), incubated with trypsin (0.25%, Gibco) for 5 min at 37° C. and pipetted gently to dissociate the cells. After dissociation, cells were centrifuged (1,000 r.p.m., 5 min), counted and seeded at 0.5×10^6 cells/strand of 0.5 cm in length. This ratio was maintained for generation of longer tissue strands. […]
# For optical mapping, tissue strands were incubated with a voltage sensitive dye (Di-4-ANEPPS 5 μM, Invitrogen) for 20 min at 37° C. in warm Tyrode's solution (NaCl 118 mM, KCl, 4.7 mM, CaCl2 1.25 mM, MgSO4 0.6 mM, KH2PO4 1.2 mM, NaHCO3 25 mM, glucose 6 mM; oxygenated by bubbling carbogen 95% O2, 5% CO2 for at least 20 minutes shortly before use). Dye fluorescence was recorded on a MVX-10 Olympus fluorescence microscope equipped with a high-speed CMOS camera (Ultima-L, Scimedia)^29-30. […] The fluorescence was excited using a mercury arc source (X-Cite Exacte) with green filter (Olympus U-MWIG2 filter cube). […]
# [5] = system: hESC-derived CMs 3D tissues; assay type: cell-based, human
# Experimental: Alternatively, to measure the force generated by the 3D engineered cardiac tissues, a bioreactor consisting of a PDMS tissue chamber capable of housing 8 micotissues was employed. […] Briefly, each well of the PDMS chamber had two posts which served as anchoring points for each cardiac tissue during gel compaction. Furthermore, by tracking a post's deflection, the force of contraction a cardiac tissue generated was determined. Cardiac tissues underwent 7 days of pre-culture followed by 7 days of treatment with endothelin-1, angiotensin II or isoproterenol. After the treatment, the contractile force of each cardiac tissue was determined by video recording, one at a time, the top surface of a post for each cardiac tissue while being paced at 0.5 or 1 Hz using CellSens software (Olympus). Each video was then exported as a series of Tiff images and opened in ImageJ. […] Using the method of superposition for a cantilever beam-partial uniform deflection, a point force was calculated and then normalized to the tissues cross sectional area (assumed circular) to determine the cardiac force per area.
# hESC-CM biowires (Hes2) [6] = assay type: cell-based, human
# Experimental: After preculture for 7 days, biowires were randomly transferred to 6-well plates and cultured in StemPro-34 media in the absence or presence of Isoproterenol (100 nM), Angiotensin II (200 nM [17]) or Endothelin-1 (150 nM)(Sigma) for 7 days. This protocol was chosen to replicate the chronic treatment of mice as described. […] Isolated single cells were seeded on Matrigel-coated glass cover slips before cell area and calcium transient measurements were performed. Immunostaining and Fluorescence Microscopy. Immunostaining was performed using the following antibodies: mouse anti-cTNT (1:100, Thermo Scientific; MS-295-P1), mouse anti-α-actinin (1:200, Abcam, ab9465), anti-mouse-Alexa Fluor 488 (1:400, Invitrogen, A21202), anti-rabbit-TRITC (1:400, Invitrogen, 81-6114). DAPI was used to counterstain nuclei. Phalloidin Alexa Fluor 660 (1:1000, Invitrogen, A22285) was used to detect actin fibers. The stained cells were visualized using a fluorescence microscope (Leica CTR6000) and images captured using the Leica Application Suite software. For confocal microscopy cells were visualized using a fluorescence confocal microscope (Zeiss LSM-510). Transmission Electron Microscopy (TEM). Tissue was fixed with 4% Paraformaldehyde, 1% Glutaraldehyde in 0.1 M PBS for at least 1 hr and washed 3 times with PBS pH 7.2. Post-fixation was done with 1% Osmium Tetraoxide in 0.1 M PBS, pH 7.2 for 1 hr and dehydrated using ethanol series from 25 to 100%. Tissue was infiltrated using Epon resin and polymerized in plastic dishes at 40° C. for 48 hr. Tissue was stained with Uranyl Acetate and Lead Citrate after sectioning. Imaging was performed at Hitachi H-7000 transmission electron microscope.
# hESC-CM biowires (Hes2) [7] = assay: Chronic drug exposure: ELISA of soluble BNP in conditioned media; assay type: cell-based, human
# Experimental: After preculture for 7 days, biowires were randomly transferred to 6-well plates and cultured in StemPro-34 media in the absence or presence of Isoproterenol (100 nM), Angiotensin II (200 nM [17]) or Endothelin-1 (150 nM)(Sigma) for 7 days. This protocol was chosen to replicate the chronic treatment of mice as described. […] Isolated single cells were seeded on Matrigel-coated glass cover slips before cell area and calcium transient measurements were performed. ELISA. Quantification of soluble BNP from the conditioned media was performed using commercially available ELISA kits.
# [8] = system: Hes2 hESC derived cardiomyocytes; assay type: cell-based, human; details: single cells dissociated at end of 7 days treatment, cardiac troponin T staining
# Experimental: (§1) After preculture for 7 days, biowires were randomly transferred to 6-well plates and cultured in StemPro-34 media in the absence or presence of Isoproterenol (100 nM), Angiotensin II (200 nM [17]) or Endothelin-1 (150 nM)(Sigma) for 7 days. This protocol was chosen to replicate the chronic treatment of mice as described. […] Isolated single cells were seeded on Matrigel-coated glass cover slips before cell area and calcium transient measurements were performed.
# hESC-CM biowires (Hes2) [9] = assay: Chronic drug exposure of biowires: quantitative RT-PCR of fetal gene program; assay type: cell-based, human; details: 7 days treatment: ISO 100 nM, Et-1 150 nM, AngII 200 nM; vs untreated control
# Experimental: as §1
# Quantitative RT-PCR. RT-PCR was performed as previously described. Total RNA was prepared with the High Pure RNA Isolation Kit (Roche) and treated with RNase-free DNase (Roche). RNA was reverse transcribed into cDNA using random hexamers and Oligo (dT) with SuperScript VILO (Invitrogen). RT-qPCR was performed on a LightCycler 480 (Roche) using LightCycler 480 SYBR Green I Master (Roche). Expression levels were normalized to the housekeeping genes TATA box binding protein (TBP) or Glyceraldehyde 3-phosphate dehydrogenase (GAPDH).
compound,measurement,setting,value
Cc1cccc(CCN2CCC(C(=O)c3ccc(NS(C)(=O)=O)cc3)CC2)n1 [E4301],response of human cardiac tissues to well-known drugs,[1],responded appropriately
Cn1c(=O)c2c(ncn2C)n(C)c1=O [caffeine],effect of caffeine added post blockage of L-type Ca2+ channels,"[2]; cells from 6 Hz tissue strands, after verapamil or nifedipine",Ca^2+ release into the cytosol
same,Ca2+ transient amplitude intensity in response to caffeine,"[2]; electrically stimulated cells vs non-stimulated controls, caffeine 5 mM",significantly higher amplitude intensity
same,response of cytosolic Ca2+ to caffeine,"[2]; single cells from electrically stimulated tissue strands, 3 and 6 Hz conditions",inducing an increase in cytosolic Ca^2+
same,response of cytosolic Ca2+ to caffeine,[2]; single cells from non-stimulated control tissue strands,none of the hESC-cardiomyocytes in non-stimulated controls were responsive
C[C@H]1O[C@@H](O[C@H]2[C@@H](O)C[C@H](O[C@H]3[C@@H](O)C[C@H](O[C@H]4CC[C@@]5(C)[C@H](CC[C@@H]6[C@@H]5C[C@@H](O)[C@]5(C)[C@@H](C7=CC(=O)OC7)CC[C@]65O)C4)O[C@@H]3C)O[C@@H]2C)C[C@H](O)[C@@H]1O [digoxin],chronotropic response (frequency of spontaneous contraction),[3],negative chronotropic response
"CNC[C@H](O)c1ccc(O)c(O)c1 [Epinephrine, epinephrine]",chronotropic response (frequency of spontaneous contraction),[3],positive chronotropic response
same,spontaneous beating frequency,[4],increasing spontaneous beating frequency
"CC[C@H](C)[C@H](NC(=O)[C@H](Cc1ccc(O)cc1)NC(=O)[C@@H](NC(=O)[C@H](CCCNC(=N)N)NC(=O)[C@@H](N)CC(=O)O)C(C)C)C(=O)N[C@@H](Cc1cnc[nH]1)C(=O)N1CCC[C@H]1C(=O)N[C@@H](Cc1ccccc1)C(=O)O [AngII, angiotensin II]",force of contraction,[5],significantly reduced force of contraction
same,contractile apparatus (transmission electron microscopy),hESC-CM biowires (Hes2) [6],significant absence of distinct Z-disks and the lack of a defined sarcomere structure
endothelin-1 [Et-1],BNP in the conditioned media,hESC-CM biowires (Hes2) [7]; chronic treatment,BNP can also be found in the conditioned media
same,increase in the secretion of BNP,"hESC-CM biowires (Hes2) [7]; day 2 post-treatment, media conditioned for 48 h",5 fold
same,increase of BNP in the media,"hESC-CM biowires (Hes2) [7]; day 7, media conditioned for 24 h",7 fold
same,increase in cell size,[8],100%
same,force of contraction,[5],significantly reduced force of contraction
same,ANF and BNP gene expression (fetal gene program),hESC-CM biowires (Hes2) [9],no changes in gene expression
same,contractile apparatus (transmission electron microscopy),hESC-CM biowires (Hes2) [6],significant absence of distinct Z-disks and the lack of a defined sarcomere structure
NC[C@H](O)c1ccc(O)c(O)c1 [Norepinephrine],beating frequency,[1]; 10 μM,significant increased beating frequency
same,response of human cardiac tissues to well-known drugs,[1],responded appropriately
COc1ccc(CCN(C)CCCC(C#N)(c2ccc(OC)c(OC)c2)C(C)C)cc1OC (stereo not drawn) [verapamil],Ca2+ transients after blockage of L-type Ca2+ channels,[2]; cells from 6 Hz tissue strands,cessation in Ca^2+ transients
C/C=C(/C)C(=O)O[C@H]1C(C)=C2[C@H]([C@@H]1OC(=O)CCCCCCC)[C@@](C)(OC(C)=O)C[C@H](OC(=O)CCC)[C@@]1(O)[C@H]2OC(=O)[C@@]1(C)O [thapsigargin],calcium transients after blockage of SERCA,[2]; cells from 6 Hz tissue strands,cessation of calcium transients with time
